From patent US11000033B2, “Ketone or oxime compound, and herbicide” (NISSAN CHEMICAL CORPORATION, priority 2014, dated 2021)

Key:
Type in all cases: in vivo
Monochoria vaginalis = assay: Test Example 1: herbicidal activity, application before weed generation in submerged conditions (symbol C); conditions: application herbicide amount 320 g/ha
In short: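 Steps: alluvial soil flooded to 4 cm; weed seeds sown together; rice seedlings (2.5 leaf) transplanted; diluted emulsion applied to water surface the same day as sowing; plants grown at 25–30 °C in greenhouse; herbicidal effect rated on a 0–5 scale at 3 weeks.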

[1] = test system: Echinochloa oryzacola Vasing.; assay: Test Example 2: herbicidal activity, application during weed generation in submerged conditions (symbol A); conditions: Table 23; application herbicide amount 320 g/ha; grade 0-5 by criteria of Test Example 1
In short: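 Weeds emerging under flooded conditions were treated with compound formulated as an emulsion and diluted with water to the intended herbicide amount, poured onto the surface of 4 cm standing water. Seeds had been co-sown in alluvial soil; plants grew at 25° C. to 30° C. and were assessed after 3 weeks.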

Leptochloa chinensis = assay: Test Example 3: herbicidal effect by foliage application, Wagner pot (symbol D); conditions: application herbicide amount 320 g/ha
In short: (§1)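 Alluvial soil was flooded to a depth of 0.1–0.5 cm, seeded with the weeds and rice, and kept in a greenhouse at 25–30 °C. After 14 days of growth, the foliage received a small-sprayer application of emulsion diluted to the intended rate; injury was rated at 3 weeks.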

Cyperus difformis = assay: Test Example 3: herbicidal effect by foliage application, Wagner pot (symbol E); conditions: application herbicide amount 320 g/ha
In short: as §1

Digitaria ciliaris = assay: Test Example 4: herbicidal effect by soil treatment (symbol F); conditions: application herbicide amount 320 g/ha
In short: (§2)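 Seeds were sown in sterilized diluvial soil, covered with about 1.5 cm of soil, and the soil surface was sprayed with a water-diluted emulsion of the compound at a predetermined rate. Plants grew in a greenhouse at 25° C. to 30° C.; effects were scored visually 3 weeks after application.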

Abutilon theophrasti = assay: Test Example 4: herbicidal effect by soil treatment (symbol M); conditions: application herbicide amount 320 g/ha
In short: as §2

Amaranthus retroflexus = assay: Test Example 4: herbicidal effect by soil treatment (symbol N); conditions: application herbicide amount 320 g/ha
In short: as §2

corn = assay: Test Example 4: effect on crop by soil treatment (symbol c); conditions: application herbicide amount 320 g/ha
In short: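 Crop seed is sown in spots together with several weed species in a box of sterilized diluvial soil. It is covered by about 1.5 cm of soil and kept in a greenhouse held between 25° C. and 30° C.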

soybean = assay: Test Example 4: effect on crop by soil treatment (symbol d); conditions: application herbicide amount 320 g/ha
In short: (§3)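 Plants are raised in a greenhouse (25° C. to 30° C.) from spot-sown seed, which sits under about 1.5 cm of sterilized diluvial soil in a box shared with weed species.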

beet = assay: Test Example 4: effect on crop by soil treatment (symbol f); conditions: application herbicide amount 320 g/ha
In short: as §3

Lolium multiflorum Lam. = assay: Test Example 5: herbicidal effect by foliage application, plastic box (symbol K); conditions: 320 g/ha, 3 weeks after application
In short: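 Emulsion formulation, diluted with water to the intended rate, was applied uniformly to leaves by small sprayer. Recipients were 14-day greenhouse-grown seedlings (25° C. to 30° C.). Assessment followed at 3 weeks.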

| Structure (SMILES) | Herbicidal effect grade, C: Monochoria vaginalis (Monochoria vaginalis) | Herbicidal effect grade, A: Echinochloa oryzacola Vasing. [1] | herbicidal effect on D (Leptochloa chinensis), grade 0-5 (Leptochloa chinensis) | herbicidal effect on E, grade 0-5 (Cyperus difformis) | F (Digitaria ciliaris) herbicidal effect grade (Digitaria ciliaris) | M (Abutilon theophrasti) herbicidal effect grade (Abutilon theophrasti) | N (Amaranthus retroflexus) herbicidal effect grade (Amaranthus retroflexus) | c (corn) effect on crop grade (corn) | d (soybean) effect on crop grade (soybean) | f (beet) effect on crop grade (beet) | K: Lolium multiflorum Lam., herbicidal effect grade (Lolium multiflorum Lam.) |
| --- | --- | --- | --- | --- | --- | --- | --- | --- | --- | --- | --- |
| CC(CC1CC(O)=C(c2c(C)cc(C)cc2C)C1=O)=NO (centres unmarked) [1-058] | 0 (Herbicidal ratio of 5% or lower (almost no effect)) | 5 (Herbicidal ratio of 90% or more (almost completely withered)) | 5 (Herbicidal ratio of 90% or more (almost completely withered)) | 5 (Herbicidal ratio of 90% or more (almost completely withered)) | 5 (Herbicidal ratio of 90% or more (almost completely withered)) | 4 (Herbicidal ratio of 70% or higher and lower than 90%) | 2 (Herbicidal ratio of 20% or higher and lower than 40%) | 4 (Herbicidal ratio of 70% or higher and lower than 90%) | 0 (Herbicidal ratio of 5% or lower (almost no effect)) | 0 (Herbicidal ratio of 5% or lower (almost no effect)) | 5 (Herbicidal ratio of 90% or more (almost completely withered)) |
| CON=C(CC1CC(O)=C(c2c(C)cc(C)cc2C)C1=O)C(C)(C)C (centres unmarked) [1-059] | 2 (Herbicidal ratio of 20% or higher and lower than 40%) | 4 (Herbicidal ratio of 70% or higher and lower than 90%) | 1 (Herbicidal ratio of 5% or higher and lower than 20%) | 3 (Herbicidal ratio of 40% or higher and lower than 70%) | 4 (Herbicidal ratio of 70% or higher and lower than 90%) | 1 (Herbicidal ratio of 5% or higher and lower than 20%) | 0 (Herbicidal ratio of 5% or lower (almost no effect)) | 3 (Herbicidal ratio of 40% or higher and lower than 70%) | 0 (Herbicidal ratio of 5% or lower (almost no effect)) | 0 (Herbicidal ratio of 5% or lower (almost no effect)) | 3 (Herbicidal ratio of 40% or higher and lower than 70%) |
| CON=C(C)CC1CC(OC(=O)C(C)Oc2ccccc2)=C(c2c(C)cc(C)cc2C)C1=O (centres unmarked) [1-060] | 3 (Herbicidal ratio of 40% or higher and lower than 70%) | 5 (Herbicidal ratio of 90% or more (almost completely withered)) | 5 (Herbicidal ratio of 90% or more (almost completely withered)) | 5 (Herbicidal ratio of 90% or more (almost completely withered)) | 5 (Herbicidal ratio of 90% or more (almost completely withered)) | 4 (Herbicidal ratio of 70% or higher and lower than 90%) | 5 (Herbicidal ratio of 90% or more (almost completely withered)) | 4 (Herbicidal ratio of 70% or higher and lower than 90%) | 0 (Herbicidal ratio of 5% or lower (almost no effect)) | 0 (Herbicidal ratio of 5% or lower (almost no effect)) | 5 (Herbicidal ratio of 90% or more (almost completely withered)) |
| CON=C(C)CC1CC(OC(=O)C(C)(C)Oc2ccccc2Cl)=C(c2c(C)cc(C)cc2C)C1=O (centres unmarked) [1-064] | 1 (Herbicidal ratio of 5% or higher and lower than 20%) | 5 (Herbicidal ratio of 90% or more (almost completely withered)) | 5 (Herbicidal ratio of 90% or more (almost completely withered)) | 5 (Herbicidal ratio of 90% or more (almost completely withered)) | 5 (Herbicidal ratio of 90% or more (almost completely withered)) | 3 (Herbicidal ratio of 40% or higher and lower than 70%) | 4 (Herbicidal ratio of 70% or higher and lower than 90%) | 5 (Herbicidal ratio of 90% or more (almost completely withered)) | 2 (Herbicidal ratio of 20% or higher and lower than 40%) | 0 (Herbicidal ratio of 5% or lower (almost no effect)) | 3 (Herbicidal ratio of 40% or higher and lower than 70%) |
| CON=C(C)CC1CC(OC(=O)C(C)(C)Oc2cccc(Cl)c2)=C(c2c(C)cc(C)cc2C)C1=O (centres unmarked) [1-065] | 0 (Herbicidal ratio of 5% or lower (almost no effect)) | 4 (Herbicidal ratio of 70% or higher and lower than 90%) | 5 (Herbicidal ratio of 90% or more (almost completely withered)) | 5 (Herbicidal ratio of 90% or more (almost completely withered)) | 5 (Herbicidal ratio of 90% or more (almost completely withered)) | 4 (Herbicidal ratio of 70% or higher and lower than 90%) | 5 (Herbicidal ratio of 90% or more (almost completely withered)) | 5 (Herbicidal ratio of 90% or more (almost completely withered)) | 0 (Herbicidal ratio of 5% or lower (almost no effect)) | 0 (Herbicidal ratio of 5% or lower (almost no effect)) | 5 (Herbicidal ratio of 90% or more (almost completely withered)) |
| CCC(C)C(CC1CC(O)=C(c2c(C)cc(C)cc2C)C1=O)=NOC (centres unmarked) [1-066] | 0 (Herbicidal ratio of 5% or lower (almost no effect)) | 2 (Herbicidal ratio of 20% or higher and lower than 40%) | 2 (Herbicidal ratio of 20% or higher and lower than 40%) | 5 (Herbicidal ratio of 90% or more (almost completely withered)) | 4 (Herbicidal ratio of 70% or higher and lower than 90%) | 0 (Herbicidal ratio of 5% or lower (almost no effect)) | 0 (Herbicidal ratio of 5% or lower (almost no effect)) | 4 (Herbicidal ratio of 70% or higher and lower than 90%) | 0 (Herbicidal ratio of 5% or lower (almost no effect)) | 0 (Herbicidal ratio of 5% or lower (almost no effect)) | 5 (Herbicidal ratio of 90% or more (almost completely withered)) |
| CON=C(C)CC1CC(OC(=O)COc2cccc(OC)c2)=C(c2c(C)cc(C)cc2C)C1=O (centres unmarked) [1-068] | 3 (Herbicidal ratio of 40% or higher and lower than 70%) | 5 (Herbicidal ratio of 90% or more (almost completely withered)) | 5 (Herbicidal ratio of 90% or more (almost completely withered)) | 5 (Herbicidal ratio of 90% or more (almost completely withered)) | 5 (Herbicidal ratio of 90% or more (almost completely withered)) | 4 (Herbicidal ratio of 70% or higher and lower than 90%) | 4 (Herbicidal ratio of 70% or higher and lower than 90%) | 5 (Herbicidal ratio of 90% or more (almost completely withered)) | 0 (Herbicidal ratio of 5% or lower (almost no effect)) | 0 (Herbicidal ratio of 5% or lower (almost no effect)) | 5 (Herbicidal ratio of 90% or more (almost completely withered)) |
